Measured values: US10933141B2, “Formulations with reduced degradation of polysorbate” (Genentech, Inc., priority 2015, dated 2021)

Experiments:
[1] = biological target: T1, porcine pancreatic lipase (PPL) (Sus scrofa, UniProt P00591); test: Subvisible particle formation after PPL digestion of PS20 (HIAC); assay type: physicochemical; conditions: 0.02% PS20; for effect on SVP formation (in words): 15 μg/mL PPL 4.5 hours, then 5° C. overnight, excipient 15% w/v (methionine 10 mg/mL)
T1 construct: purchased Sigma Aldrich Inc. (St. Louis, Mo.)
T1 sequence (P00591 1-450): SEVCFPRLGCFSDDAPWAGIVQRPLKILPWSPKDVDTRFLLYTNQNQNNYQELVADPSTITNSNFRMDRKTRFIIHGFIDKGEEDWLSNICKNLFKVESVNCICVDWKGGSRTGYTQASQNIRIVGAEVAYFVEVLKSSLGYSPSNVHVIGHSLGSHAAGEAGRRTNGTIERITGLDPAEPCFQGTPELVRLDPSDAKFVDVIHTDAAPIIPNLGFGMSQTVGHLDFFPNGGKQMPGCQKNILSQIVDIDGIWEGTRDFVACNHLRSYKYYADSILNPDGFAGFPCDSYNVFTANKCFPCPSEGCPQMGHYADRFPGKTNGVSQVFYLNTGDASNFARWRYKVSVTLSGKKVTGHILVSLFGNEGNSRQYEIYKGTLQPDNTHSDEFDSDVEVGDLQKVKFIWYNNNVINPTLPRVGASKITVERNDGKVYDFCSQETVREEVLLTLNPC
Method: (§1) Subvisible particles were measured using a HIAC 9703 particle counter equipped with an HRDL-150 detector and a 1 mL syringe. Performance of the instrument was verified with NIST-traceable 2 μm Polystyrene bead standards at 3000 counts/mL before each measurement session. The HIAC instrument was configured to a 10 mL/min flow rate, 0.1 mL tare volume, and 0.4 mL sample volume. The samples were analyzed using 4 runs of 0.4 mL sips, with the first run of each sample was discarded to prevent measurement error due to sample carryover. Results were reported as the average values for 1.4, 2, 5, 10, 15, and 25, 50 μm analysis filter sizes.
Several excipients were tested for their ability to protect PS20 against enzymatic hydrolysis including HP-α-CD, HP-β-CD, HP-γ-CD, SBE-β-CD, PVP, PEG 1500, sucrose, and methionine. Solutions of each excipient in pH 5.5 buffer were prepared containing a final concentration of 0.02% PS20 after enzyme addition. The concentration of HP-α-CD, HP-β-CD, HP-γ-CD, and SBE-β-CD in the excipient solutions was 106 mM. […] The remaining excipients (PVP, PEG 1500, sucrose) were added to 15% w/v to match the % w/v of HP-β-CD. Samples were digested with 15 μg/mL PPL enzyme for 4.5 hours at room temperature, followed by 30 minutes of heat inactivation at 85° C. Each sample was analyzed for PS20 concentration using high performance liquid chromatography with an inline evaporative light scattering detector. Samples were then placed at 5° C. overnight to allow for the formation of particles and were analyzed for visible and subvisible particles as described previously.
The effect of the HP-β-CD concentration at different PS20 concentrations on the enzymatic degradation of PS20 was assessed to identify optimal concentrations for inhibition of enzymatic PS20 degradation. To evaluate the dependence of PS20 degradation on HP-β-CD concentration, the PS20 content was determined using RP-ELSD for triplicate samples containing different HP-β-CD concentrations at various PS20 concentrations. Samples containing 0.005% (FIG. 14A), 0.02% (FIG. 14B), 0.1% (FIG. 14C), and 0.4% PS20 (FIG. 14D) were digested using 15 μg/mL of PPL enzyme for 4.5 hours at room temperature in protein-free samples containing no excipient (control), 0, 0.5, 5, and 15% (w/v) HP-β-CD. PPL was added to each of the treatment solutions at a ratio of 75 […], with an equivalent volume of buffer added to the control solutions to determine the effect of HP-β-CD to polysorbate ratio on enzymatic degradation. Digestion was stopped by heat inactivation in an 85° C. water bath for 30 minutes. Each sample was analyzed for PS20 concentration using high performance liquid chromatography with an inline evaporative light scattering detector as described above. Samples were then placed at 5° C. overnight to allow for the formation of particles and placed on ice during analysis for visible and subvisible particles as described above.

[2] = Solubilization of particles from oxidative PS20 degradation (HIAC); assay type: physicochemical; conditions: 5% and 15% (w/v) HP-β-CD; 0.02% (w/v) PS20 stored 27 months at 5° C.
Method: as §1
Different concentrations of HP-β-CD were tested for their ability to solubilize particles produced as a result of oxidative PS20 degradation. Solutions of concentrated HP-β-CD were prepared in triplicate in pH 5.5 buffer. Protein-free samples containing 0.02% (w/v) PS20 were stored for 27 months at 5° C., resulting in oxidative PS20 degradation and the formation of visible and subvisible particles related to PS20 degradation products. Each degraded PS20 solution was divided into 3 aliquots and concentrated excipient was spiked into each the aliquots. […] The following day, subvisible particle counts were measured using a HIAC 9703 particle counter.

[3] = PPL 4.5 hours, particles greater than 2, 5, or 10μ

Substance | effect on SVP formation (in words) [1] | HP-β-CD concentration required to completely inhibit sub-visible particle formation [1, 3] | HP-β-CD concentration required to partially inhibit sub-visible particle formation [1, 3] | SVP relative to control sample (0% HP-β-CD) [2]
2-hydroxypropyl-β-cyclodextrin [HP-β-CD] | significant inhibitory effects | 15% | 0.5% | significant reduction in SVP
2-hydroxypropyl-α-cyclodextrin [HP-α-CD] | significant inhibitory effects |  |  | 
